{"source": "paper PMC10401705", "about": "“Imaging Saturation Transfer Difference (STD) NMR: Affinity and Specificity of Protein–Ligand Interactions from a Single NMR Sample” (Journal of the American Chemical Society, 2023)", "key": {"[1]": {"molecular_target": "T1, wheat germ agglutinin (WGA)", "T1 construct": "gene WGA1", "test": "imaging STD NMR, initial slopes (STD-AF0), Langmuir fit", "format": "binding, Triticum aestivum"}, "[2]": {"molecular_target": "T2, bovine serum albumin (BSA) (Bos taurus, UniProt P02769)", "T2 construct": "gene ALB", "T2 sequence (P02769 25-607)": "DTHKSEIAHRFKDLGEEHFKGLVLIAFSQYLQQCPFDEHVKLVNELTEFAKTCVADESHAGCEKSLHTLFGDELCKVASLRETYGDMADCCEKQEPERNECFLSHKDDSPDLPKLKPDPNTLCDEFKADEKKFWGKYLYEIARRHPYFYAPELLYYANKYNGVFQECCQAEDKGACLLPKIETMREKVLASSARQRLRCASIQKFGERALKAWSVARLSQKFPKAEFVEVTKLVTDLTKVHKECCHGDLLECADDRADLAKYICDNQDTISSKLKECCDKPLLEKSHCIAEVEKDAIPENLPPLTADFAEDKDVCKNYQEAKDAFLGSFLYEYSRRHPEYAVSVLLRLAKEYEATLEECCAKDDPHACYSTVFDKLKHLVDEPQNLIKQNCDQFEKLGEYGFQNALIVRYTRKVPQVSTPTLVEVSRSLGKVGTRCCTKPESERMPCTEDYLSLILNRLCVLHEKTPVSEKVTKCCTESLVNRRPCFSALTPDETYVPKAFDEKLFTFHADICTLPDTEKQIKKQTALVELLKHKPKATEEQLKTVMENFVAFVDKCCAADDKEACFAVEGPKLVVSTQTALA", "test": "imaging STD NMR, initial slopes (STD-AF0), Langmuir fit", "format": "binding"}}}
{"smiles": "CC(=O)N[C@H]1C(O)O[C@H](CO)[C@@H](O)[C@@H]1O", "note": "(some centres unmarked) [GlcNAc]", "values": [{"measurement": "Kd", "setting": "[1]", "result": "2240 ± 180", "unit": "µM"}]}
{"smiles": "N[C@@H](Cc1c[nH]c2ccccc12)C(=O)O", "note": "[tryptophan]", "values": [{"measurement": "Kd", "setting": "[2]", "result": "231 ± 50", "unit": "µM"}]}
